Reference: ChEMBL document CHEMBL1151930, “Physicochemical determinants of human renal clearance” (J Med Chem, 2009)

Experiment: clinical
Conditions: human, in vivo

SMILES	CL renal
CC[C@@]1(O)C(=O)OCc2c1cc1n(c2=O)Cc2c-1nc1ccccc1c2N	0.56 mL/min/kg
N[C@@H](Cc1ccc(N(CCCl)CCCl)cc1)C(=O)O	0.91 mL/min/kg
CCN(CC)CCNC(=O)c1ccc(NC(C)=O)cc1 [ACECAINIDE]	3.2 mL/min/kg
CCN1CCCC1CNC(=O)c1cc(S(=O)(=O)CC)c(N)cc1OC (configuration not stated) [AMISULPRIDE]	4.4 mL/min/kg
CN1CCCC(n2nc(Cc3ccc(Cl)cc3)c3ccccc3c2=O)CC1 (configuration not stated) [AZELASTINE]	0.18 mL/min/kg
CC[C@H]1OC(=O)[C@H](C)[C@@H](O[C@H]2C[C@@](C)(OC)[C@@H](O)[C@H](C)O2)[C@H](C)[C@@H](O[C@@H]2O[C@H](C)C[C@H](N(C)C)[C@H]2O)[C@](C)(O)C[C@@H](C)CN(C)[C@H](C)[C@@H](O)[C@]1(C)O [AZITHROMYCIN]	0.45 mL/min/kg
CCCC1O[C@@H]2C[C@H]3[C@@H]4CCC5=CC(=O)C=C[C@]5(C)[C@H]4[C@@H](O)C[C@]3(C)[C@]2(C(=O)CO)O1 (some centres not stated) [BUDESONIDE]	1 mL/min/kg
C=CC1=C(C(=O)O)N2C(=O)[C@@H](NC(=O)/C(=N\OCC(=O)O)c3csc(N)n3)[C@H]2SC1 [CEFIXIME]	0.42 mL/min/kg
COc1ccc([C@]2(C#N)CC[C@@H](C(=O)O)CC2)cc1OC1CCCC1 [CILOMILAST]	0.01 mL/min/kg
Clc1cccc(Cl)c1N=C1NCCN1 [CLONIDINE]	2.48 mL/min/kg
C[C@]12C=CC(=O)C=C1CC[C@@H]1[C@@H]2[C@@H](O)C[C@@]2(C)[C@H]1CC[C@]2(O)C(=O)CO [PREDNISOLONE]	0.6 mL/min/kg
C[C@]12C=CC(=O)C=C1CC[C@@H]1[C@@H]2C(=O)C[C@@]2(C)[C@H]1CC[C@]2(O)C(=O)CO [PREDNISONE]	0.05 mL/min/kg
CCCN(CCC)S(=O)(=O)c1ccc(C(=O)O)cc1 [PROBENECID]	0.03 mL/min/kg
CC(CN1c2ccccc2Sc2ccccc21)N(C)C (configuration not stated) [PROMETHAZINE]	0.14 mL/min/kg
CC(C)NCC(O)COc1cccc2ccccc12 (configuration not stated) [PROPRANOLOL]	1.2 mL/min/kg
CCCc1cc(=O)[nH]c(=S)[nH]1 [PROPYLTHIOURACIL]	0.04 mL/min/kg
CN(C)C(=O)Oc1ccc[n+](C)c1 [PYRIDOSTIGMINE]	7.2 mL/min/kg
CCOc1ccccc1OC(c1ccccc1)C1CNCCO1 (configuration not stated) [REBOXETINE]	0.04 mL/min/kg
CCN1CCC[C@H]1CNC(=O)c1c(OC)ccc(Br)c1OC [REMOXIPRIDE]	0.44 mL/min/kg
CCOc1cc(CC(=O)N[C@@H](CC(C)C)c2ccccc2N2CCCCC2)ccc1C(=O)O [REPAGLINIDE]	0.12 mL/min/kg
NC(=O)c1ncn([C@@H]2O[C@H](CO)[C@@H](O)[C@H]2O)n1 [RIBAVIRIN]	1.7 mL/min/kg
CO[C@H]1/C=C/O[C@@]2(C)Oc3c(C)c(O)c4c(c3C2=O)C2=NC3(CCN(CC(C)C)CC3)NC2=C(NC(=O)/C(C)=C\C=C\[C@H](C)[C@H](O)[C@@H](C)[C@@H](O)[C@@H](C)[C@H](OC(C)=O)[C@@H]1C)C4=O [RIFABUTIN]	0.4 mL/min/kg
O=P(O)(O)C(O)(Cc1cccnc1)P(=O)(O)O [RISEDRONIC ACID]	1.31 mL/min/kg
Cc1nc2n(c(=O)c1CCN1CCC(c3noc4cc(F)ccc34)CC1)CCCC2 [RISPERIDONE]	0.18 mL/min/kg

SMILES	CL renal
CCN(C)C(=O)Oc1cccc([C@H](C)N(C)C)c1 [RIVASTIGMINE]	0.12 mL/min/kg
CC(C)c1nc(N(C)S(C)(=O)=O)nc(-c2ccc(F)cc2)c1/C=C/[C@@H](O)C[C@@H](O)CC(=O)O [ROSUVASTATIN]	3.3 mL/min/kg
CCN(CC)CCNC(=O)c1ccc(NS(C)(=O)=O)cc1 [SEMATILIDE]	3.5 mL/min/kg
N[C@@H]1CN(c2c(F)cc3c(=O)c(C(=O)O)cn([C@@H]4C[C@@H]4F)c3c2Cl)CC12CC2 [SITAFLOXACIN ANHYDROUS]	2.8 mL/min/kg
C[C@@H]1CN(c2c(F)c(N)c3c(=O)c(C(=O)O)cn(C4CC4)c3c2F)C[C@H](C)N1 [SPARFLOXACIN]	0.4 mL/min/kg
Cc1cn([C@H]2C=C[C@@H](CO)O2)c(=O)[nH]c1=O [STAVUDINE]	3.53 mL/min/kg
CC1(C)S[C@@H]2[C@H](NC(=O)C(c3ccccc3)S(=O)(=O)O)C(=O)N2[C@H]1C(=O)O (some centres not stated) [SULBENICILLIN]	1.3 mL/min/kg
Nc1ccc(S(=O)(=O)Nc2ncccn2)cc1 [SULFADIAZINE]	0.34 mL/min/kg
CC(C(=O)O)c1ccc(C(=O)c2cccs2)cc1 (configuration not stated) [SUPROFEN]	0.04 mL/min/kg
Nc1c2c(nc3ccccc13)CCCC2 [TACRINE]	1.68 mL/min/kg
CC(C)(C)NCC(O)COc1ccc(NC(=O)NC2CCCCC2)cc1 (configuration not stated) [TALINOLOL]	2.6 mL/min/kg
CCOc1ccccc1OCCN[C@H](C)Cc1ccc(OC)c(S(N)(=O)=O)c1 [TAMSULOSIN]	0.08 mL/min/kg
CCCCCNC(=N)N/N=C/c1c[nH]c2ccc(OC)cc12 [TEGASEROD]	0.36 mL/min/kg
CC[C@H]1OC(=O)[C@H](C)C(=O)[C@H](C)[C@@H](O[C@@H]2O[C@H](C)C[C@H](N(C)C)[C@H]2O)[C@](C)(OC)C[C@@H](C)C(=O)[C@H](C)[C@H]2N(CCCCn3cnc(-c4cccnc4)c3)C(=O)O[C@]12C [TELITHROMYCIN]	3.14 mL/min/kg
COc1cc([C@@H]2c3cc4c(cc3[C@@H](O[C@@H]3O[C@@H]5CO[C@@H](c6cccs6)O[C@H]5[C@H](O)[C@H]3O)[C@H]3COC(=O)[C@H]23)OCO4)cc(OC)c1O [TENIPOSIDE]	0.02 mL/min/kg
C[C@H](Cn1cnc2c(N)ncnc21)OCP(=O)(O)O [TENOFOVIR ANHYDROUS]	2.7 mL/min/kg
COc1cc2nc(N3CCN(C(=O)C4CCCO4)CC3)nc(N)c2cc1OC (configuration not stated) [TERAZOSIN]	0.13 mL/min/kg
CC(C)(C)NCC(O)c1cc(O)cc(O)c1 (configuration not stated) [TERBUTALINE]	2.2 mL/min/kg
CC(CC(c1ccccc1)c1ccccc1)NC(C)(C)C (configuration not stated) [TERODILINE]	0.14 mL/min/kg
CCO[C@@H](Cc1ccc(OCCc2ccc(OS(C)(=O)=O)cc2)cc1)C(=O)O [TESAGLITAZAR]	0.01 mL/min/kg
CN(C)[C@@H]1C(O)=C(C(N)=O)C(=O)[C@@]2(O)C(O)=C3C(=O)c4c(O)cccc4[C@@](C)(O)[C@H]3C[C@@H]12 [TETRACYCLINE]	0.9 mL/min/kg
Cn1c(=O)c2[nH]cnc2n(C)c1=O.O [THEOPHYLLINE]	0.09 mL/min/kg
CCCC(C)C1(CC)C(=O)NC(=S)NC1=O (configuration not stated) [THIOPENTAL]	0.08 mL/min/kg
S=P(N1CC1)(N1CC1)N1CC1 [THIOTEPA]	0.03 mL/min/kg

SMILES	CL renal
Cc1ccsc1C(=CCCN1CCC[C@@H](C(=O)O)C1)c1sccc1C [TIAGABINE]	0.03 mL/min/kg
CN(C)c1cc(NC(=O)CNC(C)(C)C)c(O)c2c1C[C@H]1C[C@H]3[C@H](N(C)C)C(O)=C(C(N)=O)C(=O)[C@@]3(O)C(O)=C1C2=O [TIGECYCLINE]	0.57 mL/min/kg
CCOC(=O)C1(c2ccccc2)CCC=CC1N(C)C (configuration not stated) [TILIDINE]	0.26 mL/min/kg
CC(C)(C)NC[C@H](O)COc1nsnc1N1CCOCC1 [TIMOLOL]	1.4 mL/min/kg
Clc1ccc2nsnc2c1NC1=NCCN1 [TIZANIDINE]	0.33 mL/min/kg
NC[C@H]1O[C@H](O[C@H]2[C@H](O)[C@@H](O[C@H]3O[C@H](CO)[C@@H](O)[C@H](N)[C@H]3O)[C@H](N)C[C@@H]2N)[C@H](N)C[C@@H]1O [TOBRAMYCIN]	1.19 mL/min/kg
Cc1cccc(C)c1NC(=O)C(C)N (configuration not stated) [TOCAINIDE]	0.8 mL/min/kg
Cc1cccc(N2CC(CO)OC2=O)c1 (configuration not stated) [TOLOXATONE]	0.11 mL/min/kg
C[C@@H](O)[C@H]1C(=O)N2C(C(=O)O)=C(S[C@H]3C[C@@H](C(=O)N4CC[C@H](NC(=O)CNC(=N)N)C4)N(C)C3)[C@H](C)[C@H]12 [TOMOPENEM]	1.14 mL/min/kg
CC[C@@]1(O)C(=O)OCc2c1cc1n(c2=O)Cc2cc3c(CN(C)C)c(O)ccc3nc2-1 [TOPOTECAN]	5.2 mL/min/kg
Cc1cccc(Nc2ccncc2S(=O)(=O)NC(=O)NC(C)C)c1 [TORSEMIDE]	0.13 mL/min/kg
COc1cccc(C2(O)CCCCC2CN(C)C)c1 (configuration not stated) [TRAMADOL]	0.98 mL/min/kg
C[C@@H]([C@@H](O)c1ccc(O)cc1)N1CCC(O)(c2ccccc2)CC1 [TRAXOPRODIL]	1.92 mL/min/kg
COc1cc(NCc2ccc3nc(N)nc(N)c3c2C)cc(OC)c1OC [TRIMETREXATE]	0.14 mL/min/kg
CN[C@H](CC(C)C)C(=O)N[C@H]1C(=O)N[C@@H](CC(N)=O)C(=O)N[C@H]2C(=O)N[C@H]3C(=O)N[C@H](C(=O)N[C@H](C(=O)O)c4cc(O)cc(O)c4-c4cc3ccc4O)[C@H](O)c3ccc(c(Cl)c3)Oc3cc2cc(c3O[C@@H]2O[C@H](CO)[C@@H](O)[C@H](O)[C@H]2O[C@H]2C[C@](C)(N)[C@H](O)[C@H](C)O2)Oc2ccc(cc2Cl)[C@H]1O [VANCOMYCIN]	1.03 mL/min/kg
COc1ccc(C(CN(C)C)C2(O)CCCCC2)cc1 (configuration not stated) [VENLAFAXINE]	0.64 mL/min/kg
CC[C@]1(O)C[C@@H]2CN(CCc3c([nH]c4ccccc34)[C@@](C(=O)OC)(c3cc4c(cc3OC)N(C)[C@H]3[C@@](O)(C(=O)OC)[C@H](OC(C)=O)[C@]5(CC)C=CCN6CC[C@]43[C@@H]65)C2)C1 [VINBLASTINE]	2.64 mL/min/kg
CC(=O)N[C@H]1[C@H]([C@H](O)[C@H](O)CO)OC(C(=O)O)=C[C@@H]1N=C(N)N [ZANAMIVIR]	1.39 mL/min/kg
Cc1cn([C@H]2C[C@H](N=[N+]=[N-])[C@@H](CO)O2)c(=O)[nH]c1=O [ZIDOVUDINE]	5.67 mL/min/kg
O=C1Cc2cc(CCN3CCN(c4nsc5ccccc45)CC3)c(Cl)cc2N1 [ZIPRASIDONE]	0.05 mL/min/kg
O.O=P(O)(O)C(O)(Cn1ccnc1)P(=O)(O)O [ZOLEDRONIC ACID]	0.79 mL/min/kg
CN(C)CCc1c[nH]c2ccc(C[C@H]3COC(=O)N3)cc12 [ZOLMITRIPTAN]	2.2 mL/min/kg
Cc1ccc(-c2nc3ccc(C)cn3c2CC(=O)N(C)C)cc1 [ZOLPIDEM]	0.04 mL/min/kg
CN1CCN(C(=O)OC2c3nccnc3C(=O)N2c2ccc(Cl)cn2)CC1 (configuration not stated) [ZOPICLONE]	0.1 mL/min/kg

Experiment: Total body clearance in human
Conditions: in vivo

SMILES	clearance
CC[C@@]1(O)C(=O)OCc2c1cc1n(c2=O)Cc2c-1nc1ccccc1c2N	6.5 mL/min/kg
N[C@@H](Cc1ccc(N(CCCl)CCCl)cc1)C(=O)O	7 mL/min/kg
CCN(CC)CCNC(=O)c1ccc(NC(C)=O)cc1 [ACECAINIDE]	4 mL/min/kg
CCN1CCCC1CNC(=O)c1cc(S(=O)(=O)CC)c(N)cc1OC (configuration not stated) [AMISULPRIDE]	7.8 mL/min/kg
CN1CCCC(n2nc(Cc3ccc(Cl)cc3)c3ccccc3c2=O)CC1 (configuration not stated) [AZELASTINE]	9 mL/min/kg
CC[C@H]1OC(=O)[C@H](C)[C@@H](O[C@H]2C[C@@](C)(OC)[C@@H](O)[C@H](C)O2)[C@H](C)[C@@H](O[C@@H]2O[C@H](C)C[C@H](N(C)C)[C@H]2O)[C@](C)(O)C[C@@H](C)CN(C)[C@H](C)[C@@H](O)[C@]1(C)O [AZITHROMYCIN]	10 mL/min/kg
CCCC1O[C@@H]2C[C@H]3[C@@H]4CCC5=CC(=O)C=C[C@]5(C)[C@H]4[C@@H](O)C[C@]3(C)[C@]2(C(=O)CO)O1 (some centres not stated) [BUDESONIDE]	20 mL/min/kg
C=CC1=C(C(=O)O)N2C(=O)[C@@H](NC(=O)/C(=N\OCC(=O)O)c3csc(N)n3)[C@H]2SC1 [CEFIXIME]	1 mL/min/kg
COc1ccc([C@]2(C#N)CC[C@@H](C(=O)O)CC2)cc1OC1CCCC1 [CILOMILAST]	0.5 mL/min/kg
Clc1cccc(Cl)c1N=C1NCCN1 [CLONIDINE]	4 mL/min/kg
O=P1(N(CCCl)CCCl)NCCCO1 (configuration not stated) [CYCLOPHOSPHAMIDE ANHYDROUS]	1.1 mL/min/kg
CCC1=C(C)CN(C(=O)NCCc2ccc(S(=O)(=O)NC(=O)N[C@H]3CC[C@H](C)CC3)cc2)C1=O [GLIMEPIRIDE]	0.5 mL/min/kg
Cc1cc(NC(=O)C2=C(O)c3ccccc3S(=O)(=O)N2C)no1 [ISOXICAM]	0.07 mL/min/kg
CN1C(=O)C(O)N=C(c2ccccc2Cl)c2cc(Cl)ccc21 (configuration not stated) [LORMETAZEPAM]	4 mL/min/kg
COCCCOc1ccnc(C[S+]([O-])c2nc3ccccc3[nH]2)c1C (configuration not stated) [RABEPRAZOLE]	4 mL/min/kg
